Data from patent US9982017B2, “Synthetic apelin mimetics for the treatment of heart failure” (priority 2012, dated 2018).
Where a SMILES comes first, the peptide text is derived from it. Bridges are numbered along the chain shown (N, C = ends). [ ]: non-standard residue; d: D form. The star is where a group is joined. pGlu = O=C1CC[C@@H](C(=O)O)N1; NHPhenethyl = c1ccc(CCN*)cc1; Nle = CCCC[C@H](N)C(=O)O; Inp = O=C(O)C1CCNCC1

What was measured:
[1] = Plasma Stability Assay (LC-MS); assay type: in vitro ADME; details: male, Sprague-Dawley, heparinized rat plasma, 37° C., Table 3, read-out: Plasma stability t½
Description: • Working solution: 1 mg/mL test article is prepared in Milli-Q water • Extraction solution: Methanol:Acetonitrile:Water (1:1:1) with 0.1% Formic Acid and 400 ng/mL Glyburide. • Plasma: Male Sprague-Dawley rat plasma (with sodium heparin), purchased from Bioreclamation LLC (Liverpool, N.Y.). • Whole blood: Male Sprague Dawley whole blood (with sodium heparin), purchased from Bioreclamation LLC (Liverpool, N.Y.) • Lung homogenate: Male rat Sprague Dawley lung was purchased from Bioreclamation LLC (Liverpool, N.Y.). The lung was homogenized using polytron homogenizer after addition of 5× volume of 1×PBS. The homogenate was centrifuged at 9000 rpm for 10 min at 4° C. The supernatant was centrifuged again at 3000 rpm for 30 min to make a clear supernatant. Protein concentration was determined using a commercial kit (Pierce, Thermo Scientific). Sample Preparation Procedure:
Test article was prepared in one of the following biological matrices: heparinized rat plasma, heparinized rat whole blood or lung homogenate. The plasma and whole blood sample was prepared at 5000 ng/mL by adding 5 uL of 1 mg/mL Working solution to 995 uL of rat plasma or whole blood. Lung homogenate samples were prepared by diluting lung homogenate to 1 mg/ml protein concentration with phosphate buffered saline (PBS), followed by addition of 5 uL Working solution to 995 uL diluted lung homogenate. The samples were incubated at 37° C. with gentle shaking (65˜75 rpm) in a water bath incubator. At times 0 min, 5 min, 15 min, 30 min, 60 min, 120 and 240 min, 25 uL aliquots of incubation samples were transferred to 96-well plate and immediately protein precipitated using 150 uL of Extraction solution. After completion of incubation experiment, the sample plate was centrifuged at 4000 rpm at 4° C. for 10 minutes. Afterwards, a pipetting device (Tecan Temo) was used to tranfer the supernatants to another plate and add 50 uL of water to all samples. The plate was vortexed prior to LC-MS analysis. • LC-MS Analysis of Stability Samples • HPLC: Agilent 1290 HPLC with autosampler • Column: MAC-MOD ACE C18, 3 μm, 30 mm×2.1 mm i.d. • Mobile phase A: 0.1% Formic acid in acetonitrile • Mobile phase B: 0.1% Formic acid in water Gradient Program: […]

in vitro = details: rat, not told
Description: The slope of this line, k, was determined by linear regression (Microsoft Excel). • Stability half-life was then calculated by the formula, t ½=0.693÷k Surrogate Activity-Based Plasma Stability Assay:
The calcium flux protocol described above was followed, with the following changes. The peptides were also incubated with 5% rat plasma (Bioreclamation # [sequence]-M, Na Heparin-treated). Readings were taken at time points t0 and t24 hrs, after incubation in a 37° C. tissue culture incubator. Peptide plasma half-life in minutes was estimated by calculating the following:
2) Calculate slope of value above and

[2] = Surrogate Activity based Plasma stability t½
[3] = Surrogate activity-based Plasma stability t½

| Structure (SMILES) | half-life at 5000 ng/mL [1] [min] | half-life (in vitro; [2]) [min] | half-life (in vitro; [3]) [min] |
| --- | --- | --- | --- |
| CCCC[C@@H]1NC(=O)[C@@H]2CCCN2C(=O)CNC(=O)[C@H](CCCCN)NC(=O)[C@H](Cc2c[nH]cn2)NC(=O)[C@@H](NC(=O)[C@H](CC(C)C)NC(=O)[C@H](CCCNC(=N)N)NC(=O)[C@@H]2CCCN2C(=O)[C@@H](N)CCCNC(=N)N)CSSC[C@@H](C(=O)N[C@@H](Cc2ccccc2)C(=O)O)NC1=O [Example 16, H-R-P-R-L-C-H-K-G-P-Nle-C-F-OH] (H-RPRLCHKGP[Nle]CF-OH; disulfide 5-11) | 10.2 | 13.4 | 13.4 |
| CCCC[C@@H]1NC(=O)[C@@H]2CCCN2C(=O)CNC(=O)[C@H](CCCCN)NC(=O)[C@H](Cc2c[nH]cn2)NC(=O)[C@@H](NC(=O)[C@H](CC(C)C)NC(=O)[C@H](CCCNC(=N)N)NC(=O)[C@@H]2CCCN2C(=O)[C@H](CCCNC(=N)N)NC(=O)[C@@H](N)CCCNC(=N)N)CSSC[C@@H](C(=O)N[C@@H](Cc2ccccc2)C(=O)O)NC1=O [Example 17, H-R-R-P-R-L-C-H-K-G-P-Nle-C-F-OH] (H-RRPRLCHKGP[Nle]CF-OH; disulfide 6-12) | 2.3 | 14.1 | 14.1 |
| CCCC[C@@H]1NC(=O)[C@@H]2CCCN2C(=O)CNC(=O)[C@H](CCCCN)NC(=O)[C@H](Cc2c[nH]cn2)NC(=O)[C@@H](NC(=O)[C@H](CC(C)C)NC(=O)[C@H](CCCNC(=N)N)NC(=O)[C@@H]2CCCN2C(=O)[C@H](CCCNC(=N)N)NC(=O)[C@@H]2CCC(=O)N2)CSSC[C@@H](C(=O)NCCc2ccccc2)NC1=O [Example 12, pE-R-P-R-L-C-H-K-G-P-Nle-C-Phenethylamine] ([pGlu]RPRLCHKGP[Nle]C-NHPhenethyl; disulfide 6-12) | 53.9 | 96.2 | 93.6 |
| CCCC[C@@H]1NC(=O)[C@@H]2CCCN2C(=O)CNC(=O)[C@H](CCCCN)NC(=O)[C@H](Cc2c[nH]cn2)NC(=O)[C@@H](NC(=O)[C@H](CC(C)C)NC(=O)[C@H](CCCNC(=N)N)NC(=O)[C@@H]2CCCN2C(=O)[C@H](CCCNC(=N)N)NC(=O)C2CCNCC2)CSSC[C@@H](C(=O)N[C@@H](Cc2ccccc2)C(=O)O)NC1=O [Example 18, H-Isn-R-P-R-L-C-H-K-G-P-Nle-C-F-OH] (H-[Inp]RPRLCHKGP[Nle]CF-OH; disulfide 6-12) | 220 | 248 | 248 |
| CCCC[C@@H]1NC(=O)[C@@H]2CCCN2C(=O)CNC(=O)[C@H](CCCCN)NC(=O)[C@H](Cc2c[nH]cn2)NC(=O)[C@@H](NC(=O)[C@H](CC(C)C)NC(=O)[C@H](CCCNC(=N)N)NC(=O)[C@@H]2CCCN2C(=O)[C@H](CCCNC(=N)N)NC(=O)[C@@H]2CCC(=O)N2)CSSC[C@@H](C(=O)N[C@H](Cc2ccccc2)C(=O)O)NC1=O [Example 13, pE-R-P-R-L-C-H-K-G-P-Nle-C-f-OH] ([pGlu]RPRLCHKGP[Nle]C[dF]-OH; disulfide 6-12) | 183 | 284 | 284 |
| CCCC[C@@H]1NC(=O)[C@@H]2CCCN2C(=O)CNC(=O)[C@H](CCCCN)NC(=O)[C@H](Cc2cnc[nH]2)NC(=O)[C@@H](NC(=O)[C@H](CC(C)C)NC(=O)[C@H](CCCNC(=N)N)NC(=O)[C@@H]2CCCN2C(=O)[C@H](CCCNC(=N)N)NC(=O)[C@@H]2CCC(=O)N2)CSSC[C@@H](C(=O)N[C@@H](Cc2ccccc2)C(=O)O)NC1=O [Example 8, (S)-2-((3S,6R,11R,14S,17S,25aS)-14-((1H-imidazol-5-yl)methyl)-17-(4-aminobutyl)-3-butyl-11-((S)-2-((S)-5-guanidino-2-((S)-1-((S)-5-guanidino-2-((S)-5-oxopyrrolidine-2-carboxamido)pentanoyl)pyrrolidine-2-carboxamido)pentanamido)-4-methylpentanamido)-1,4,12,15,18,21-hexaoxodocosahydro-1H-pyrrolo[2,1-j][1,2,5,8,11,14,17,20]dithiahexaazacyclotricosine-6-carboxamido)-3-phenylpropanoic acid] ([pGlu]RPRLCHKGP[Nle]CF-OH; disulfide 6-12) | 163 | 407 | 407 |
